Laboratory results as given in US10155732B2, “Ribonucleotide reductase inhibitors and methods of use” (City of Hope, priority 2012, dated 2018).
Several values for one entry are separate records, joined by “and”; a condition that tells them apart may be missing. Equal values may be shown once. Read-outs that look alike come from different tables or passages of the source.

Columns and labels:
[1] = system: normal fibroblast NHDF cells; test: MTT cytotoxicity assay; type: cell-based, human; settings: 72 hours
Procedure: (§1) The in vitro cytotoxicity of COH4 and COH20 towards human leukemia REH and MOLT-4 cells, human prostate cancer LNCaP cells, human oropharyngeal cancer KB cells, and normal fibroblast NHDF cells was evaluated using an MTT assay. 5,000 cells were seeded on six-well plates for 72 hours with various concentrations of drug. COH20 was cytotoxic to the cancer cell lines at less than 10 μM, while causing less cytotoxicity to normal cells than 3-AP.

[2] = system: human oropharyngeal cancer KB cells; test: MTT cytotoxicity assay; type: cell-based; settings: 72 hours
Procedure: as §1

[3] = system: human prostate cancer LNCaP cells; test: MTT cytotoxicity assay; type: cell-based; settings: 72 hours
Procedure: as §1

[4] = system: human leukemia REH cells; test: MTT cytotoxicity assay; type: cell-based; settings: 72 hours
Procedure: as §1

[5] = target: recombinant RRM1/RRM2 complex (Homo sapiens (Human), UniProt P31350); test: in vitro holoenzyme-based RR assay, [3H]CDP reduction by HPLC; type: biochemical; settings: for inhibition of native RRM1/RRM2 activity in vitro screen: screen of top 80 virtual screening candidates
Excerpt: Compounds that docked into the ligand binding pocket were identified using the TRIPOS FlexX docking tool and ranked using an embedded consensus docking score. […] The assay utilized recombinant RRM1/RRM2 or RRM1/RRM2 complex and measured [^3H]CDP reduction activity (i.e., CDP to dCDP) by HPLC.

[6] = system: human leukemia MOLT-4 cells; test: MTT cytotoxicity assay; type: cell-based
Procedure: as §1
(§2) The in vitro cytotoxicity of COH29 towards a panel of human cancer cell lines was tested using the MTT assay described above.

[7] = system: KBMDR; test: in vitro cytotoxicity assay, multidrug resistant clone; type: cell-based, human
[8] = system: KBHURs; test: in vitro cytotoxicity assay, HU-resistant clone; type: cell-based, human; settings: overexpresses RRM2
Procedure: as §1
In vitro cytotoxicity assays were repeated using KBHURs, an HU-resistant clone derived from KB cells that overexpresses RRM2. […] Similar experiments will be repeated using the gemcitabine resistant cell line KBGem, which also overexpresses RRM2.

[9] = system: intracellular RR; test: intracellular RR activity in lysates of treated KB cells; type: cell-based, human; settings: KB cells treated with 10 μM
Procedure: To confirm that the ability of COH20 to inhibit RR activity was not specific to recombinant RR, an assay was performed testing the effect of COH20 on intracellular RR. KB cells treated with 10 μM COH20 were lysed, and protein was extracted in a high salt buffer and passed through a G25 SEPHADEX® column to remove small molecules such as dNTP. The eluate was mixed with [^3H]CDP in reaction buffer to monitor RR activity. Treatment with COH20 decreased intracellular RR activity by approximately 50% (FIG. 7).

[10] = single-dose pharmacokinetic evaluation in rats; type: in vivo, rat
Procedure: COH20 was injected into three male rats at 1 mg/kg for single-dose pharmacokinetic evaluation. […] More detailed pharmacokinetic studies will be performed with various dosages of COH20 to establish parameters such as clearance, bioavailability, and tissue/plasma partition coefficients.
Pharmacokinetic evaluation was performed on COH29 using the same techniques, with COH29 administered at a dosage of 25 mg/kg.

[11] = system: REH, MOLT-4, LNCaP and KB cancer cell lines; test: MTT cytotoxicity assay, cancer cell lines together; type: cell-based, human
Procedure: as §1

[12] = system: NCI 60 human cancer cell lines; test: MTT cytotoxicity assay, panel of human cancer cell lines; type: cell-based
Procedure: as §1, §2

[13] = system: Ovarian Cancer OV 90; test: MTT cytotoxicity assay; type: cell-based; settings: Homo sapiens
Procedure: as §1, §2

[14] = system: Leukemia CCRF-CEM; test: MTT cytotoxicity assay; type: cell-based; settings: Homo sapiens
Procedure: as §1, §2

[15] = system: Leukemia SUP B15; test: MTT cytotoxicity assay; type: cell-based; settings: Homo sapiens
Procedure: as §1, §2

[16] = RR activity, Table 1, read-out: IC50 ± S.D.
[17] = Homo sapiens, MOLT-4, 72 hours, Table 3, read-out: IC50 MOLT-4
[18] = rats, 25 mg/kg, individual analysis 1-3

Sequence of recombinant RRM1/RRM2 complex (P31350 whole entry, one chain of several): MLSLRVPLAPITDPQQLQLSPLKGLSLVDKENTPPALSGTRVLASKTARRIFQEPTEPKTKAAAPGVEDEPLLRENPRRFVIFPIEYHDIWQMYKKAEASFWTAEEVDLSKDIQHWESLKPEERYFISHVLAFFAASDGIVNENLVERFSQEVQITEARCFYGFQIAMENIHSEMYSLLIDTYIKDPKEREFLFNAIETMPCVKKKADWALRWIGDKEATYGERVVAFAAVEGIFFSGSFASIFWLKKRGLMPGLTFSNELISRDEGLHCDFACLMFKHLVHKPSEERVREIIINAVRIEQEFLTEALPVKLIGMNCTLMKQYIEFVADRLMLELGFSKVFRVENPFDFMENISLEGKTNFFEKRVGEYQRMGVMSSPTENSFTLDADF

O=C(Nc1nc(-c2ccc(O)c(O)c2)cs1)c1ccccc1 [COH4]
IC50 ([1]; Homo sapiens, NHDF): 52.6 µM
IC50 ([2]; Homo sapiens, KB): 30.6 µM
IC50 ([3]; Homo sapiens, LNCaP): 23 µM
IC50 ([4]; Homo sapiens, REH): 20.6 µM
IC50 [5, 16]: 15.3 ± 1.8 µM
IC50 [6, 17]: 11.8 µM

O=C(Nc1nc(-c2ccc(O)c(O)c2)cs1)c1ccc(O)c(O)c1 [COH20]
IC50 ([1]; Homo sapiens, NHDF): 82.8 µM
concentration exhibiting cytotoxicity towards KBMDR cells [7]: 80 µM
cytotoxicity to KBMDR (in words) ([7]; overexpresses the MDR pump): at lower concentrations than 3-AP or HU
IC50 ([2]; Homo sapiens, KB): 9.25 µM
IC50 ([3]; Homo sapiens, LNCaP): 8.49 µM
IC50 ([4]; Homo sapiens, REH): 2.54 µM
cytotoxicity to KBHURs (in words) [8]: cytotoxic to KBHURs at significantly lower concentrations than the other RR inhibitors tested
inhibition of the recombinant RRM1/RRM2 complex in vitro [5]: 90.2%
IC50 [5, 16]: 9.3 ± 2.3 µM
IC50 ([5]; Table 2, no added Fe, read-out: IC50 ± S.D. RRM1/RRM2): 9.31 ± 2.3 µM
decrease of intracellular RR activity [9]: approximately 50%
IC50 [6, 17]: 5.26 µM
half-life ([10]; male, rat, plasma, other: injected, 1 mg/kg, three male rats, 1 mg/kg, plasma, read-out: terminal half-life (T1/2) (converted)): ~5.5 h
concentration cytotoxic / growth inhibiting to the cancer cell lines [11]: less than 10 μM

O=C(Nc1nc(-c2ccc(O)c(O)c2)c(-c2ccccc2)s1)c1ccc(O)c(O)c1 [COH29]
GI50 ([12]; except HT29, UACC-257, NCI/ADR-RES, CAKI-1): < 10 µM
IC50 ([12]; except colon cancer HT29, melanoma UACC-257, ovarian cancer NCI/ADR-RES, renal cancer CAKI-1, read-out: IC50 in all cell types tested): < 10 µM
IC50 ([6]; Homo sapiens, MOLT-4, Table 4, read-out: IC50 Leukemia MOLT-4): 2.5 µM
IC50 [13]: 2.6 µM
IC50 [14]: 2.8 µM
IC50 [15]: 5 µM
AUC ([10]; rat, plasma, intravenous, 25 mg/kg, rats, 25 mg/kg, Avg. of triplicate, read-out: AUC): 3480 ng·h/mL
Cmax ([10]; rat, plasma, intravenous, 25 mg/kg, rats, 25 mg/kg, Avg. of triplicate, read-out: Cmax): 27600 ng/mL
half-life ([10]; rat, plasma, intravenous, 25 mg/kg, rats, 25 mg/kg, Avg. of triplicate, read-out: T1/2 (converted)): 2.67 h
Vd ([10]; rat, plasma, intravenous, 25 mg/kg, rats, 25 mg/kg, Avg. of triplicate, read-out: Vss): 0.804 L/kg
AUC ([10]; rat, plasma, intravenous, 25 mg/kg, rats, 25 mg/kg, individual analysis 1-3, read-out: AUC): 3670 ng·h/mL
Cmax ([10]; rat, plasma, intravenous, 25 mg/kg, rats, 25 mg/kg, individual analysis 1-3, read-out: Cmax): 31300 ng/mL
clearance ([10]; rat, plasma, intravenous, 25 mg/kg, rats, Avg. of triplicate): 122 mL/min/kg
clearance ([10]; rat, plasma, intravenous, 25 mg/kg, rats, individual analysis 1-3): 114 mL/min/kg
Tmax ([10]; rat, plasma, intravenous, rats, 25 mg/kg, individual analysis 1-3): 1.8 min
AUC [10, 18]: 2861 ng·h/mL and 3918 ng·h/mL
CL [10, 18]: 145.6 mL/min/kg and 106.4 mL/min/kg
Cmax [10, 18]: 26000 ng/mL and 25600 ng/mL
T1/2 [10, 18]: 0.4 h and 7.6 h and 0.03 h
Vss [10, 18]: 1.185 L/kg and 0.576 L/kg and 0.653 L/kg
AUC dose dependence ([10]; rats, i.v. bolus): dose-dependent manner

NC(=S)NN=Cc1ncccc1N [Compound 3-AP, 3-aminopyridine-2-carboxaldehyde thiosemicarbazone, reference compound]
IC50 ([1]; Homo sapiens, NHDF): 7.35 µM
concentration exhibiting cytotoxicity towards KBMDR cells [7]: 200 µM
IC50 ([2]; Homo sapiens, KB): 1.98 µM
IC50 ([3]; Homo sapiens, LNCaP): 1.75 µM
IC50 ([4]; Homo sapiens, REH): 1.42 µM
IC50 [5, 16]: 1.2 ± 0.13 µM
IC50 [6, 17]: 1.21 µM

NC(=O)NO [HU, hydroxyurea, reference compound]
IC50 [1]: > 1000 µM
concentration exhibiting cytotoxicity towards KBMDR cells [7]: > 1000 µM
IC50 [2]: 300 µM
IC50 [3]: 280 µM
IC50 [4]: 32.8 µM
IC50 [5, 16]: 148 ± 7.34 µM
IC50 ([6]; 72 hours, Table 3, read-out: IC50 MOLT-4): 165 µM

O=C1C(Cl)=C(Nc2ccc(S(=O)(=O)Nc3ccccn3)cc2)C(=O)c2ccccc21 [NSC #45382]
inhibition of native RRM1/RRM2 activity in vitro screen [5]: ≥ 80%

Cl.O=c1oc2ccccc2c(O)c1C=Nc1nc(-c2ccc(O)c(O)c2)cs1 [NSC #659390]
inhibition of native RRM1/RRM2 activity in vitro screen [5]: ≥ 80%
